The assay deals with T1, K103NNY181C mutant reverse transcriptase (Human immunodeficiency virus type 1 group M subtype B, UniProt P04585, K690N/Y768C).
T1 construct: mutations that occur in the reverse transcriptase segment of the pol gene
The assay can be described thus: Reverse transcriptase enzymatic assay (PicoGreen), K103N/Y181C mutant RT. Type of assay: biochemical, HIV-1. The conditions noted are these: enzymatic assay of Example 24. The method, boiled down: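 HIV-1 RT (2.5 nM final) pre-incubated 15 min at room temperature with inhibitor, then reacted 50 min at 37 °C with poly rC 45 nM, dG15 4.5 nM, dGTP 3.6 μM in Tris/HCl pH 7.8, 1% DMSO. Final inhibitor 10 μM to 0.508 nM; EDTA-quenched, PicoGreen fluorescence read at 485/520 nm.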

Where [1] appears, read: IC50 mut, K103N/Y181C mutant reverse transcriptase.
Where [2] appears, read: IC50 mut, mutant reverse transcriptase.
The mark [3] stands for this setting: IC50 mut (nM), mutant (K103N/Y181C) reverse transcriptase.

By IC50 is commonly meant the concentration that inhibits the measured activity by half. Low values mean greater potency, high ones weaker potency. `CC(C)(C#Cc1ccc(NC(=O)CSc2nnnn2-c2ccc(C3CC3)cc2Cl)c(Cl)c1)OCC(N)=O` [Compound 4064] yielded an IC50 under setting [1] of 11.5 nM. Compound `O=C(CSc1nnnn1-c1ccc(C2CC2)cc1Cl)Nc1ccc(C#CCCN2CCC(O)CC2)cc1Cl` [Compound 4134] showed an IC50 under setting [1] of 28.5 nM. Still for that read-out and setting: the figure for `CC(C)(C#Cc1ccc(NC(=O)CSc2nnnn2-c2ccc(C3CC3)cc2Cl)c(Cl)c1)NS(C)(=O)=O` [Compound 4076] is 17.5 nM. Compound `CC(C)(C)c1ccc(-n2nnnc2SCC(=O)Nc2ccc(OCC(=O)NC3CCN(Cc4ccccc4)CC3)cc2Cl)c(Cl)c1` [Compound 5008] returned an IC50 under setting [2] of 861 nM. As to `CC(C)(C#Cc1ccc(NC(=O)CSc2nnnn2-c2ccc(CC3CC3)cc2Cl)c(Cl)c1)OCCN1CCCC1` [Compound 4246], the half-maximal inhibitory concentration (IC50) under setting [1] amounted to 212 nM.

Regarding `CC(CC(=O)O)NC(=O)COC(C)(C)C#Cc1ccc(NC(=O)CSc2nnnn2-c2ccc(C(C)(C)C)cc2Cl)c(Cl)c1` (centres unmarked) [Compound 4046], inhibition under setting [1] was half-maximal at 23 nM (IC50). `CC(C)(C)c1ccc(-n2nnnc2SCC(=O)Nc2ccc(NC(=O)Cc3ccsc3)cc2Cl)c(Cl)c1` [Compound 7026]: it took 88 nM to reach half-maximal inhibition under setting [3] (IC50). The same measure, in the same setting: then `CC(C)(C)c1ccc(-n2nnnc2SCC(=O)Nc2ccc(NC(=O)c3ccccc3)cc2Cl)c(Cl)c1` [Compound 7005], with 106 nM. `O=C(COc1ccc(NC(=O)CSc2nnnn2-c2ccc(C3CC3)cc2Cl)c(Cl)c1)NCCc1cccc[n+]1[O-]` [Compound 5038] came in with a concentration for half-maximal inhibition (IC50) under setting [2] of 557 nM. On the same count and under the same terms, then `CC(C)(C)c1ccc(-n2nnnc2SCC(=O)Nc2ccc(S(=O)(=O)NCc3ccccc3)cc2Cl)c(Cl)c1` [Compound 3028], with 440 nM. Under setting [1], `CN(C)S(=O)(=O)NC(=O)C(C)(C)C#Cc1ccc(NC(=O)CSc2nnnn2-c2ccc(C3CC3)cc2Cl)c(Cl)c1` [Compound 4185] came in with an IC50 of 55.5 nM. Take `CN1CCN(S(=O)(=O)c2ccc(NC(=O)CSc3nnnn3-c3ccc(C4CC4)cc3Cl)c(Cl)c2)CC1` [Compound 3036]: under setting [2], the half-maximal inhibitory concentration (IC50) was found to be 88 nM. Consider `O=C(CSc1nnnn1-c1ccc(C2CC2)cc1Cl)Nc1ccc(C#CC(O)(C(F)(F)F)C(F)(F)F)cc1Cl` [Compound 4249], for which, under setting [1], the midpoint of inhibition, the IC50, lay at 203 nM. Under setting [2], `Cc1ccc(-c2c(OCC(=O)Nc3ccc(C#CC(C)(C)O)cc3Cl)n[nH]c2C)c(Cl)c1` [Compound 1016] yielded a 50% inhibitory concentration (IC50) of 48 nM.

Under setting [1], `CC(C)(C#Cc1ccc(NC(=O)CSc2nnnn2-c2cc(C(F)(F)F)cc(C3CC3)c2Cl)c(Cl)c1F)NC(=O)c1ccc[n+]([O-])c1` [Compound 4230] registered an IC50 of 30.5 nM. `CC(C)(COc1ccc(NC(=O)CSc2nnnn2-c2ccc(C3CC3)cc2Cl)c(Cl)c1)C(=O)O` [Compound 3046] showed a half-inhibitory concentration (IC50) under setting [2] of 105 nM. The same measure, in the same setting: then `COC(=O)C1CCN(CCOc2ccc(NC(=O)CSc3nnnn3-c3ccc(C(C)(C)C)cc3Cl)c(Cl)c2)CC1` [Compound 3035], with 355 nM.

Under setting [1], `Cc1cc(C(F)(F)F)cc(-n2nnnc2SCC(=O)Nc2ccc(C#CC(C)(C)O)cc2Cl)c1Cl` [Compound 4030] returned a 50% inhibitory concentration (IC50) of 21 nM. Under setting [2], `CC(C)(C)c1ccc(-n2nnnc2SCC(=O)Nc2ccc(C(=O)Nc3ccc(N4CCOCC4)cc3)cc2Cl)c(Cl)c1` [Compound 6006] showed a half-maximal inhibitory concentration (IC50) of 46 nM.

On to `CC(C)(C)c1ccc(-n2nnnc2SCC(=O)Nc2ccc(C(=O)NCCc3ccncc3)cc2Cl)c(Cl)c1` [Compound 6023], for which, under setting [2], the 50% inhibitory concentration (IC50) is 22 nM. As for `CC(C)(C#Cc1ccc(NC(=O)CSc2nnnn2-c2cc(Cl)ccc2Cl)c(Cl)c1)C(=O)O` [Compound 4162], inhibition under setting [1] was half-maximal at 99 nM (IC50). Turning to `O=C(COc1ccc(NC(=O)CSc2nnnn2-c2ccc(C3CC3)cc2Cl)c(Cl)c1)NCCc1cccnc1` [Compound 5035], half-maximal inhibition under setting [2] (IC50) was put at 258 nM. Still for that read-out and setting: then `CC(C)(C)c1ccc(-n2nnnc2SCC(=O)Nc2ccc(OCC(=O)NC3CCOCC3)cc2Cl)c(Cl)c1` [Compound 5030], with 116 nM. Compound `CC(C)(C)c1ccc(-n2nnnc2SCC(=O)Nc2ccc(NC(=O)c3ccccc3Cl)cc2Cl)c(Cl)c1` [Compound 7013] returned a 50% inhibitory concentration (IC50) under setting [3] of 121 nM. Turning to `O=C(CSc1nnnn1-c1ccc(C2CC2)cc1Cl)Nc1ccc(C#CC2(CO)CC2)cc1Cl` [Compound 4083], the half-inhibitory concentration (IC50) under setting [1] came to 29 nM. This counts as double-digit nanomolar. On to `CNC(=O)c1ccc(NC(=O)CSc2nnnn2-c2ccc(C)cc2Cl)c(Cl)c1` [Compound 3007], for which it took 290 nM to reach half-maximal inhibition under setting [2] (IC50). On the same count and under the same terms, then `O=C(COc1ccc(NC(=O)CSc2nnnn2-c2ccc(C3CC3)cc2Cl)c(Cl)c1)NCc1cccnc1` [Compound 5033], with 124 nM. In the case of `CC(C)(C#Cc1ccc(NC(=O)CSc2nnnn2-c2cc(C(F)(F)F)ccc2Cl)c(Cl)c1F)OCCOc1ccncc1` [Compound 4166], the IC50 under setting [1] is 126 nM. The same measure, in the same setting: the figure for `CC(C)(C#Cc1ccc(NC(=O)CSc2nnnn2-c2ccc(C3CC3)cc2Cl)c(Cl)c1F)OCCN1CCC(F)(F)C1` [Compound 4217] is 90.5 nM. Same read-out and setting: then `CN(C)CCNC(=O)COC(C)(C)C#Cc1ccc(NC(=O)CSc2nnnn2-c2ccc(C(C)(C)C)cc2Cl)c(Cl)c1` [Compound 4047], with 66 nM. The compound `CN1CCN(NS(=O)(=O)c2ccc(NC(=O)CSc3nnnn3-c3ccc(C4CC4)cc3Cl)c(Cl)c2)CC1` [Compound 3037] returned an IC50 under setting [2] of 112 nM.

In the case of `CCN(CC)CC#Cc1ccc(NC(=O)CSc2nnnn2-c2ccc(C(C)(C)C)cc2Cl)c(Cl)c1` [Compound 4008], under setting [1], the IC50 was found to be 94 nM. Consider `O=C(CSc1nnnn1-c1ccc(C2CC2)cc1Cl)Nc1ccc(-c2ccc(OCCN3CCCCC3)cc2)cc1Cl` [Compound 2047], for which the IC50 under setting [2] amounted to 63.5 nM. For the compound `Cn1cc(NC(=O)COc2ccc(NC(=O)CSc3nnnn3-c3ccc(C(C)(C)C)cc3Cl)c(Cl)c2)cc1C(=O)O` [Compound 5029], the IC50 under setting [2] is 34 nM. `Cc1cc(C#CC(C)(C)NC(=O)c2cc[n+]([O-])cc2)ccc1NC(=O)CSc1nnnn1-c1ccc(C2CC2)cc1Cl` [Compound 4180] registered a half-maximal inhibitory concentration (IC50) under setting [1] of 71 nM.

As to `CC(C)(C)c1ccc(-n2nnnc2SCC(=O)Nc2ccc(C#CCN3CCOCC3)cc2Cl)c(Cl)c1` [Compound 4010], the IC50 under setting [1] is 27 nM. Consider `CC(C)(C)c1ccc(-n2nnnc2SCC(=O)Nc2ccc(OCCN3CCOCC3)cc2Cl)c(Cl)c1` [Compound 3034], for which, under setting [2], half-maximal inhibition (IC50) required 111 nM. Consider `Cc1cc(Cl)c(-n2nnnc2SCC(=O)Nc2ccc(C#CC(C)(C)O)cc2Cl)cc1C(F)(F)F` [Compound 4060], for which the half-inhibitory concentration (IC50) under setting [1] is 42 nM. Turning to `CC(C)(C)c1ccc(-n2nnnc2SCC(=O)Nc2ccc(NC(=O)Cc3ccccc3)cc2Cl)c(Cl)c1` [Compound 7001], under setting [3], 116 nM corresponded to half-maximal inhibition (IC50). The compound `CN(CCc1ccncc1)C(=O)COc1ccc(NC(=O)CSc2nnnn2-c2ccc(C3CC3)cc2Cl)c(Cl)c1` [Compound 5037] came in with an IC50 under setting [2] of 174 nM. On the same count and under the same terms, then `CC(C)(C)c1ccc(-n2nnnc2SCC(=O)Nc2ccc(S(=O)(=O)NCCc3ccccc3)cc2Cl)c(Cl)c1` [Compound 3024], with 516 nM. `CC(C)(C#Cc1ccc(NC(=O)CSc2nnnn2-c2ccc(C3CC3)cc2Cl)c(Cl)c1)NC(=O)c1cnccn1` [Compound 4111]: the half-maximal inhibitory concentration (IC50) under setting [1] amounted to 8.6 nM. For `Cc1nnc(SCC(=O)Nc2ccc(C#CC(C)(C)COC(N)=O)cc2Cl)n1-c1ccc(C2CC2)cc1Cl` [Compound 1011], under setting [2], the IC50 worked out at 21 nM. Regarding `CC(C)(C(=O)O)c1ccc(-c2ccc(NC(=O)CSc3nnnn3-c3ccc(C4CC4)cc3Cl)c(Cl)c2)cc1` [Compound 2052], the IC50 under setting [2] came out at 19 nM. As to `CC(C)(C#Cc1ccc(NC(=O)CSc2nnnn2-c2cc(C(F)(F)F)ccc2Cl)c(Cl)c1)NC(=O)c1ncccn1` [Compound 4139], under setting [1], the IC50 was 20.5 nM. The same measure, in the same setting: then `Cc1c(NC(=O)CSc2nnnn2-c2ccc(C3CC3)cc2Cl)ccc(C#CC(C)(C)NC(=O)c2cc[n+]([O-])cc2)c1F` [Compound 4178], with 26 nM; and `CC(C)(C#Cc1ccc(NC(=O)CSc2nnnn2-c2cc(C(C)(C)C)cc(Br)c2Cl)c(Cl)c1)NC(=O)c1cc[n+]([O-])cc1` [Compound 4223], with 30 nM. `CNS(=O)(=O)c1ccc(NC(=O)CSc2nnnn2-c2ccc(C(C)(C)C)cc2Cl)c(Cl)c1` [Compound 3021] had an IC50 under setting [2] of 63 nM. In turn, `CC(C)(C)c1ccc(-n2nnnc2SCC(=O)Nc2ccc(NC(=O)c3ccccc3O)cc2Cl)c(Cl)c1` [Compound 7014] returned an IC50 under setting [3] of 415 nM.

Consider `CC(=O)NC(C)(C)C#Cc1ccc(NC(=O)CSc2nnnn2-c2ccc(C3CC3)cc2Cl)c(Cl)c1` [Compound 4080], for which the IC50 under setting [1] was 8.45 nM. `COC(=O)c1ccc(-c2ccc(NC(=O)CSc3nnnn3-c3ccc(C)cc3Cl)c(Cl)c2)cc1` [Compound 2001] gave an IC50 under setting [2] of 133 nM.

Under setting [1], `CC(C)(C#Cc1ccc(NC(=O)CSc2nnnn2-c2ccc(C(C)(C)C)cc2Cl)c(Cl)c1)OCC(=O)O` [Compound 4020] showed an IC50 of 33 nM. Take `CC(C)(C#Cc1ccc(NC(=O)CSc2nnnn2-c2ccc(C3CC3)cc2Cl)c(Cl)c1)NC(=O)c1ccccc1` [Compound 4106]: under setting [1], the IC50 was found to be 19 nM. `Cc1cc(NC(=O)COc2ccc(NC(=O)CSc3nnnn3-c3ccc(C(C)(C)C)cc3Cl)c(Cl)c2)no1` [Compound 5001]: under setting [2], the concentration for half-maximal inhibition (IC50) amounted to 71 nM.

The compound `CC(C)(C)c1ccc(-n2nnnc2SCC(=O)Nc2ccc(OCC(=O)NCCN3CCOCC3)cc2Cl)c(Cl)c1` [Compound 5007] came in with an IC50 under setting [2] of 244 nM. `CN1CCN(C(=O)COC(C)(C)C#Cc2ccc(NC(=O)CSc3nnnn3-c3ccc(C(C)(C)C)cc3Cl)c(Cl)c2)CC1` [Compound 4023] yielded a concentration for half-maximal inhibition (IC50) under setting [1] of 64 nM. On the same count and under the same terms, the figure for `CC(C)(C#Cc1ccc(NC(=O)CSc2nnnn2-c2cc(C(F)(F)F)ccc2Cl)c(Cl)c1)NC(=O)c1cc[n+]([O-])cc1` [Compound 4120] is 17.5 nM. Under setting [3], `CC(C)(C)c1ccc(-n2nnnc2SCC(=O)Nc2ccc(NC(=O)Cc3c[nH]c4ccccc34)cc2Cl)c(Cl)c1` [Compound 7043] yielded a 50% inhibitory concentration (IC50) of 145 nM. In turn, `CC(C)(C)c1ccc(-n2nnnc2SCC(=O)Nc2ccc(-c3ccc(OCCN4CCC(O)CC4)cc3)cc2Cl)c(Cl)c1` [Compound 2031] yielded a half-inhibitory concentration (IC50) under setting [2] of 34 nM. This lies in the double-digit nanomolar range.
